# Source: PubChem BioAssay AID1259371 (The Scripps Research Institute Molecular Screening Center, 2018)
# Calls of active or inactive are those of the source. The rule behind the calls is not given here.
# Molecular target: Microphthalmia-associated transcription factor (Homo sapiens) (UniProt O75030)
# Assay: compounds blocking human MITF signal – biochemical, AlphaScreen, dose response (AID 1259371)
# Conditions: AlphaScreen biochemical MITF assay, signal inhibition
# Chain of Microphthalmia-associated transcription factor (Homo sapiens) (O75030 whole entry, looked up): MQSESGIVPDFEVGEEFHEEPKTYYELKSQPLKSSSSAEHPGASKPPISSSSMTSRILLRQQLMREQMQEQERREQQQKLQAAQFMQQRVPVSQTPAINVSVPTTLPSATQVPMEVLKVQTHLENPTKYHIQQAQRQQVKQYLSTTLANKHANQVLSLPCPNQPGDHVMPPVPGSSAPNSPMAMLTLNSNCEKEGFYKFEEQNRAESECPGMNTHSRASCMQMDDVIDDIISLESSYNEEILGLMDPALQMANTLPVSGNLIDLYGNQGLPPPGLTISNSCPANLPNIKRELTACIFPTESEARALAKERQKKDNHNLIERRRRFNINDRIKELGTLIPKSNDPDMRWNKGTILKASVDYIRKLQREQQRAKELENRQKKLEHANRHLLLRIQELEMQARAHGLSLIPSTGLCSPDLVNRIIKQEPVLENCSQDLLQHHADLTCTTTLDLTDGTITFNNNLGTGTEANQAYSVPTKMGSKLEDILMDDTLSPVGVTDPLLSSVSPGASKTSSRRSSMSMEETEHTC
row,Structure (SMILES),IC50
1,N#Cc1c(-c2ccco2)cc(-c2ccco2)nc1N,0.02 µM
2,O=C1N[C@H](Cc2ccc(O)cc2)C(=O)N2CCN(C(=O)NCc3ccccc3)C[C@H]12,inactive
3,O=C(NC1CCN(Cc2ccccc2)CC1)c1ccc2nc(-c3cccs3)sc2c1,> 6.38 µM (inactive)
4,NC(=O)c1ccc2nc(-c3cccs3)sc2c1,> 6.18 µM (inactive)
5,O=P(O)(O)C(Sc1ccc(Cl)cc1)P(=O)(O)O,0.0626 µM
6,O=C(/C=C/c1ccco1)Nc1c[nH]c(=O)[nH]c1=O,inactive
7,CN(c1cccc(NS(=O)(=O)c2ccc([N+](=O)[O-])cc2)c1)S(C)(=O)=O,> 6.48 µM (inactive)
8,COc1cccc(COC(=O)Nc2cc(F)c(-c3cn[nH]c3)cc2OCCN(C)C)c1,inactive
9,O=C(NCCc1ccc(O)cc1)c1cccc(-c2cccs2)c1,> 6.26 µM (inactive)
10,O=c1c2ccccc2nc(-c2ccccc2)n1-c1ccccc1O,> 6.5 µM (inactive)
11,CC(=O)Nc1ccc(N2C(=O)c3ccccc3C2(O)Cc2ccccc2)cc1 (configuration not stated),> 6.48 µM (inactive)
12,C=CCNC(=O)COC(=O)c1cc(-c2ccco2)nc2ccccc12,> 2.31 µM (inactive)
13,CCOC(=O)C1C2NC(=S)N(CC)C1(C)Oc1ccc(Br)cc12 (configuration not stated),> 6.31 µM (inactive)
14,CN(C)/C=C/C=C/C=C/C(=O)c1ccc(C(=O)/C=C/C=C/C=C/N(C)C)cc1,0.0967 µM
15,O=S(=O)(N=S(=O)(/C=C/c1ccccc1)c1ccccc1)c1ccccc1 (configuration not stated),> 5.36 µM (inactive)
16,CCS(=O)(=O)NCC(c1cccs1)S(=O)(=O)c1ccc(C)cc1 (configuration not stated),0.804 µM
17,CN(C)/C=C/C=C/C(=O)c1cccc(C(=O)/C=C/C=C/N(C)C)c1O,0.303 µM
18,CCCCCCCCCCCCCCCC(=O)OC[C@H](O)[C@H]1OC(=O)C(=O)C1O (some centres not stated),inactive
19,O=C(COC(=O)c1cc(-c2ccco2)nc2ccccc12)NC1CC1,inactive
20,C/C(N)=C(/C#N)C(=O)COC(=O)c1c2c(nc3ccccc13)/C(=C/c1ccco1)CC2,0.443 µM
21,CC(=O)NS(=O)(=O)c1ccc(NC(=O)c2ccc([N+](=O)[O-])o2)cc1,inactive
22,Cc1ccc2[nH]c(=O)c(=O)[nH]c2c1,> 12.1 µM (inactive)
23,Cc1ccc(N[C@@H]2OC[C@@H](O)C(O)C2O)cc1N[C@@H]1OC[C@@H](O)C(O)C1O (some centres not stated),inactive
24,O=C(NCc1ccccc1)N1CCN2C(=O)[C@H]3CCCN3C(=O)[C@H]2C1,inactive
25,CC(O)(CNCCN1CCOCC1)COc1ccc(Cl)cc1 (configuration not stated),inactive
26,CC1=C/C(=N\N=C2\NC(=O)C(CC(=O)Nc3ccc(C(=O)O)cc3)S2)CC(C)(C)C1 (configuration not stated),0.334 µM

row,Structure (SMILES),IC50
1,O=C(/C=C/c1ccc(-c2cccc(C(F)(F)F)c2)o1)c1ccco1,0.16 µM
2,NC1(C(Cl)(Cl)Cl)Oc2ccccc2O1,0.232 µM
3,O=C(/C=C/c1ccco1)Nc1nnc(-c2ccco2)s1,> 6.48 µM (inactive)
4,O=C(Nc1ccc(N2CCOCC2)cc1)c1ccc2nc(-c3cccs3)sc2c1,inactive
5,COC(=O)CN(CCN(CC(=O)O)CC(=O)OC)CC(=O)O,inactive
6,Cc1cc(C)nc(NS(=O)(=O)c2ccc(N3C(=O)C=CC3=O)cc2)n1,> 2.16 µM (inactive)
7,Cc1ccc(C(=O)N/C(=C/c2ccc([N+](=O)[O-])o2)C(=O)O)cc1,inactive
8,COCCCNC(=O)/C(C#N)=C/c1ccc(-c2ccc(C(=O)O)c(Cl)c2)o1,inactive
9,COc1nccnc1NS(=O)(=O)c1ccc(NC(=O)c2ccc([N+](=O)[O-])c(C)c2)cc1,> 6.48 µM (inactive)
10,CCN(CCN(C)C)Cc1ccc(F)cc1,> 6.48 µM (inactive)
11,Cc1ncn(-c2ccc(N(C)c3ncc4cccc(-c5ccn[nH]5)c4n3)cc2)n1,> 6.48 µM (inactive)
12,CC(C)N(C(=O)COC(=O)c1cc(-c2ccco2)nc2ccccc12)C(C)C,inactive
13,NC(=O)c1ccccc1NC(=S)NC(=O)/C=C/c1ccco1,0.471 µM
14,Cc1ccc(-c2nnc3s/c(=C\c4ccco4)c(=O)n23)cc1,inactive
15,C/C(=N\NC(=O)CC1=NNC(=O)C1)c1ccco1,inactive
16,Cc1[nH][nH]c(=O)c1C(c1ccc([N+](=O)[O-])o1)c1c(C)[nH][nH]c1=O,> 6.48 µM (inactive)
17,O=Cc1cccn1-c1ccc(C(=O)O)cc1,inactive
18,CCOC(=O)C1CCCN(Cc2cccc(Br)c2)C1 (configuration not stated),> 6.48 µM (inactive)
19,CCOc1ccc(CN2CCN(Cc3cccnc3)CC2)cc1,> 5.78 µM (inactive)
20,COc1ccc(/C=C2\N=C(c3ccc4c(c3)OCO4)OC2=O)cc1Cl,0.757 µM
21,N#C/C(=C\c1nn(-c2ccccc2)c(N)c1C#N)c1ccco1,0.386 µM
22,CC1=NN(c2ccc(C(=O)O)c(N)c2)C(=O)C1,inactive
23,CCN(CC)C(=S)NC(=O)/C=C/c1ccco1,0.0894 µM
24,Cc1ccc(NC(=O)COC(=O)CCC(=O)Nc2sc3c(c2C(N)=O)CCC3)cc1F,inactive
25,CCOC(=O)C1C2NC(=S)N(c3ccccc3)C1(C)Oc1cc(OC)ccc12 (configuration not stated),> 6.4 µM (inactive)
26,NC(=O)c1cccc(-c2cccs2)c1,inactive

row,Structure (SMILES),IC50
1,NC(=O)c1ccc(N=Cc2cc3c(cc2[N+](=O)[O-])OCO3)cc1,inactive
2,O=C(O)c1ccc(CS(=O)(=O)c2ccccc2)o1,0.146 µM
3,CN(C)CCN(C(=O)OCc1ccccc1)c1cc(-c2cn[nH]c2)ccc1NC(=O)OCc1ccccc1,inactive
4,O=C(c1ccc(=O)oc1)N1CCc2ccccc21,inactive
5,CN(C)C1C(=O)C(C(N)=O)=C(O)C2(O)C(=O)C3=C(O)c4c(O)cccc4C(C)(O)C3CC12 (configuration not stated),> 6.48 µM (inactive)
6,c1ccc2c(c1)OCC(c1nc3c(-c4ccncc4)cncc3[nH]1)O2 (configuration not stated),> 2.16 µM (inactive)
7,COc1cc(C(=O)N2CCN(Cc3ccccc3C)CC2)cc(OC)c1OC,> 5.62 µM (inactive)
8,CN(C)C(=O)N1CCN(S(=O)(=O)c2cccc([N+](=O)[O-])c2)CC1,> 6.48 µM (inactive)
9,O=C(Cn1ncn2cccc2c1=O)N1CCc2ccccc2C1,> 6.48 µM (inactive)
10,O=C1N[C@@H](COCc2ccccc2)C(=O)N2CCN(C(=O)NC3CCCCC3)C[C@H]12,inactive
11,N#Cc1c(SCC(=O)O)nc2c(c1-c1ccco1)CCC2,0.194 µM
12,COc1ccc(OC)c(NC(=O)c2cc3ccc(O)cc3oc2=Nc2ccc(C(=O)O)cc2)c1,0.981 µM
13,CC(=O)NCC(c1cccs1)S(=O)(=O)c1ccc(C)cc1 (configuration not stated),inactive
14,O=c1[nH]c(/C=C/c2ccco2)nc(O)c1[N+](=O)[O-],0.284 µM
15,CN1C(=O)[C@H]2CN(C(=O)NCc3ccccc3)CCN2C(=O)[C@@H]1Cc1ccccc1,inactive
16,Cc1noc(C2CN(C(=O)c3ccc(-n4cccc4)cc3)C2)n1,inactive
17,CC(Oc1ccc(O)cc1)(P(=O)(O)O)P(=O)(O)O,0.0855 µM
18,O=C(OC1CCOC1=O)c1cc(-c2ccco2)nc2ccccc12 (configuration not stated),0.338 µM
19,O=C(CSc1nsc(SCC(=O)Nc2ccc(Cl)c(Cl)c2)n1)Nc1ccc(Cl)c(Cl)c1,inactive
20,Cc1ccc(C(=O)Nc2ccc([N+](=O)[O-])cn2)o1,> 6.48 µM (inactive)
21,CC(C)(C)c1ccc(OCCn2cncn2)c(Cl)c1,> 6.48 µM (inactive)
22,N#C/C(=C/c1ccco1)c1cccc(F)c1,inactive
23,CC1=NC(=S)C2C(=O)O/C(=C/c3ccc(-c4cccc([N+](=O)[O-])c4)o3)C2=C1 (configuration not stated),inactive
24,O=C(/C=C/c1ccco1)ON1C(=O)c2ccccc2C1=O,> 6.48 µM (inactive)
25,O=C(NCC(c1cccs1)S(=O)(=O)c1ccc(Cl)cc1)c1ccco1 (configuration not stated),inactive
26,Cc1cccc(OCC(=O)N2CCN(Cc3cccc(Br)c3)CC2)c1,> 6.48 µM (inactive)

row,Structure (SMILES),IC50
1,CCN1CCc2c(sc(NC(=S)NC(=O)/C=C/c3ccco3)c2C(N)=O)C1,0.726 µM
2,CCOC(=O)C1C2NC(=S)N(c3ccc(CC)cc3)C1(C)Oc1c(OCC)cccc12 (configuration not stated),> 5.53 µM (inactive)
3,C/C(=N\NC(=O)Cc1cc(=O)[nH][nH]1)c1ccco1,inactive
4,C=CC1=C(C)C2=Cc3c(C=C)c(C)c4[n]3[Sn+2][n]3c(c(C)c(CCC(=O)O)c3=CC3=NC(=C4)C(C)=C3CCC(=O)O)=CC1=N2,inactive
5,Cc1ccc(CCC(=O)Nc2ccc(-c3cn4c5c(nnc4n3)CCCC5)cc2)o1,0.306 µM
6,CC(C)NC(=O)/C(C#N)=C/c1ccc(-c2ccc([N+](=O)[O-])cc2Br)o1,0.314 µM
7,O=C1N[C@@H](CC2CCCCC2)C(=O)N2CCN(C(=O)NCc3ccccc3)C[C@H]12,> 2.16 µM (inactive)
8,O=C(O)c1cc(N=Cc2ccco2)ccc1O,0.778 µM
9,CC(C)C[C@H]1C(=O)N2CCN(C(=O)NC3CCCCC3)C[C@@H]2C(=O)N1C,> 2.16 µM (inactive)
10,Cc1cc(CSC(=N)N)c(O)c(C)n1,0.533 µM
11,O=C1N[C@H](CO)C(=O)N2CCN(C(=O)NCc3ccccc3)C[C@H]12,0.526 µM
12,CN1CCN(CCNC(=O)c2cccc(CN(C(=O)c3nc4ccc(-c5cn[nH]c5)cc4s3)C3CC3)c2)CC1,0.645 µM
13,c1cc2c(cc1CNc1nc(Nc3ccc(N4CCOCC4)cc3)c3ncn(C4CCCCC4)c3n1)OCO2,inactive
14,Cc1cc2ncn(Cc3noc(-c4ccco4)n3)c2cc1C,> 6.48 µM (inactive)
15,CCOc1ncccc1C(=O)OCC(=O)Nc1oc(-c2ccco2)c(-c2ccco2)c1C#N,0.557 µM
16,O=C1O[C@H](C(O)CO)C(O)=C1O (some centres not stated),inactive
17,O=C(NC1CCCCC1)N1CCN2C(=O)[C@H]3CCCN3C(=O)[C@H]2C1,0.467 µM
18,CCOC1=CC(c2ccc3c(c2)OCO3)CC(=O)c2c(C)oc(C)c21 (configuration not stated),> 6.48 µM (inactive)
19,CCN(CC)c1ccc(C(c2c(C)[nH][nH]c2=O)c2c(C)[nH][nH]c2=O)cc1,0.286 µM
20,Cc1ccc(C)n1C(Cc1c[nH]c2ccccc12)C(=O)O (configuration not stated),0.68 µM
21,CN(C)CCS(=O)c1cc(-c2cn[nH]c2)ccc1NC(=O)[C@@H]1Cc2cc(F)ccc2CN1 (some centres not stated),inactive
22,S=c1[nH]nc(-c2cccnc2)n1/N=C/C=C/c1ccco1,0.472 µM
23,CC(C)[C@@H]1NC(=O)[C@H]2CN(C(=O)NC3CCCCC3)CCN2C1=O,> 2.16 µM (inactive)
24,NC(=O)/C(=C\c1cccc([N+](=O)[O-])c1)NC(=O)c1ccc(Br)cc1,> 6.48 µM (inactive)
